One experiment has as its target T1, P. aeruginosa LpxC (Pseudomonas aeruginosa, UniProt P47205).
T1 construct: made in house
T1 sequence (P47205 1-303): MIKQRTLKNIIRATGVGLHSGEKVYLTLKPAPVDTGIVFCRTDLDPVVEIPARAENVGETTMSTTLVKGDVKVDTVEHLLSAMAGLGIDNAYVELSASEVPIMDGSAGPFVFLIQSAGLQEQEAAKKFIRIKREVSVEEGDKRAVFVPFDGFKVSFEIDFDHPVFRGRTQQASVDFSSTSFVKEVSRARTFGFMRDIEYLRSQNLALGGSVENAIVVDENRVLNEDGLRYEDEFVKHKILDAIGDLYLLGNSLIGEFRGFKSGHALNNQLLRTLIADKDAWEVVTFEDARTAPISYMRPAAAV
The experiment is described as follows: biochemical. Particulars: 1 nM P. aeruginosa LpxC, 30 min pre-incubation, 2 μM UDP-3-O-(R-3-hydroxydecanoyl)-GlcNAc, pH 7.5, room temperature; read-out: IC50 (LpxC inhibitory activity). The source says:
The LC-MS/MS method for quantitation of LpxC product was developed using an Agilent 1200 Capillary HPLC system coupled to an Applied Biosystems MDS Sciex 4000QTRAP mass spectrometer. Both instruments are controlled using the Applied Biosystems MDS Sciex Analyst software. LpxC reaction product (UDP-3-O—(R-3-hydroxyacyl)-glucosamine) was produced by hydrolysis of LpxC substrate catalyzed by P. a. LpxC and purified using reversed phase chromatography on a Phenomenex Luna C18(2) 4.6×50 mm column. An LpxC product calibration curve was generated to evaluate the sensitivity and dynamic range of the LC-MS/MS method. Briefly, compounds are pre-incubated with 1 nM P. aeruginosa LpxC for 30 min. at room temperature. Reactions are initiated by the addition of 2 μM UDP-3-O—(R-3-hydroxydecanoyl)-GlcNAc. Reactions are conducted in a 96-well plate with a total volume of 100 μL in each well containing 50 mM Sodium phosphate pH 7.5, 0.005% Trition X-100 for 20 min at room temperature. After quenching with 1.8% HOAc (10 μL of a 20% HOAc added to each well), reaction mixtures are analyzed using the LC-MS/MS method and peak areas are transformed into product concentration using a LpxC product calibration curve. […] For IC50 determinations, peak areas are converted to percent inhibition in Microsoft Excel. Percent inhibition values are plotted vs. log compound concentration using XLfit. Data is fit to the four-parameter logistic equation using the non-linear regression algorithm in XLfit to return the IC50 and hill slope values.
A word on the IC50: it is the concentration needed to halve the response being measured. As for `CC(C)=CCC/C(C)=C/COc1ccc(C(=O)N[C@H](C(=O)NO)[C@@H](C)N)cc1` [Example 48], the IC50 was found to be 10.2 nM.
For `CC#CCOC1CCC(C(=O)N[C@H](C(=O)NO)[C@@H](C)N)CC1` (single isomer, unassigned) [Example 7], the IC50 was 380 nM.
Regarding `CC#CCOc1ccc(C(=O)N[C@@H](CN)C(=O)NO)cc1` [Example 51], the IC50 turned out to be 128 nM.
For `COc1cccc(C#CCOc2ccc(C(=O)N[C@H](C(=O)NO)C(C)(C)N)cc2)c1` [Example 70], the IC50 was 2 nM.
For the compound `CC#CCOc1ccc(C(=O)NC(C(=O)NO)C(C)(C)N)c(F)c1F` (stereo not shown) [Example 36], the IC50 is 15.9 nM.
Take `CCCC#CCOc1ccc(C(=O)N[C@H](C(=O)NO)[C@@H](C)N)cc1` [Example 23]: the 50% inhibitory concentration (IC50) worked out at 1.5 nM.
Same read-out and setting: the result for `CC#CCOc1ccc(C(=O)N[C@H](C(=O)NO)[C@@H](C)N)c(F)c1` [Example 9, N-((1S,2R)-2-Amino-1-hydroxycarbamoyl-propyl)-4-but-2-ynyloxy-2-fluoro-benzamide] reads 74.5 nM; that for `CC#CC(C)Oc1ccc(C(=O)N[C@H](C(=O)NO)[C@@H](C)N)cc1` (stereo partly shown) [Example 31], 141 nM; that for `CC(C)(O)C#CCOc1ccc(C(=O)NC(C(=O)NO)C(C)(C)N)cc1` (stereo not shown) [Example 8, N-(3-amino-1-(hydroxyamino)-3-methyl-1-oxobutan-2-yl)-4-(4-hydroxy-4-methylpent-2-ynyloxy)benzamide], 183 nM.
As to `CC(C)(N)[C@H](NC(=O)c1ccc(OCC#CC2=CCOCC2)cc1)C(=O)NO` [Example 12, N-((S)-2-Amino-1-hydroxycarbamoyl-2-methyl-propyl)-4-[3-(3,6-dihydro-2H-pyran-4-yl)-prop-2-ynyloxy]-benzamide], the 50% inhibitory concentration (IC50) was 2 nM.
Consider `CCCCCC#CCNc1ccc(C(=O)N[C@@H](CN)C(=O)NO)cn1` [Example 28], for which the concentration for half-maximal inhibition (IC50) worked out at 55.7 nM.
For the compound `CC(C)C#CCOc1ccc(C(=O)N[C@H](C(=O)NO)C(C)(C)N)cc1` [Example 53], the IC50 came to 5.5 nM.
With `CC(C)(N)[C@H](NC(=O)c1ccc(OCC#CC2=CCC(N)CC2)cc1)C(=O)NO` (stereo partly shown) [Example 75], the IC50 was 6 nM.
`CC(C)(N)[C@H](NC(=O)c1ccc(OCC#Cc2cccnc2)cc1)C(=O)NO` [Example 78]: the IC50 turned out to be 10 nM.
Turning to `CC#CCOc1ccc(C(=O)N[C@H](C(=O)NO)C(C)(C)NC)cc1` [Example 59], the IC50 was 3.2 nM.
As to `CC(C)(N)[C@H](NC(=O)c1ccc(OCC2CC2)cc1)C(=O)NO` [Example 82], the IC50 stood at 18 nM.
On the same count and under the same terms, in the case of `CC#CCOc1ccc(C(=O)NC(C(=O)NO)C(C)(C)N)cc1OC` (stereo not shown) [Example 39] it was 151 nM.
Same read-out and setting: the result for `C/C=C/COc1ccc(C(=O)N[C@H](C(=O)NO)[C@@H](C)N)cc1` [Example 57] reads 30 nM.

Still in this experiment, the particulars now being: IC50 (LpxC inhibitory activity), 1 nM P. aeruginosa LpxC, 30 min pre-incubation, 2 μM UDP-3-O-(R-3-hydroxydecanoyl)-GlcNAc, pH 7.5, room temperature.
In the case of `CC#CCOc1ccc(C(=O)N[C@@H](C(=O)NO)[C@@H](N)C(C)C)cc1` [Example 26], half-maximal inhibition (IC50) required 70 nM.

For the origin of these results see US8372885B2, “Organic compounds and their uses” (Novartis AG, priority 2008, dated 2013).
